These results are taken from patent US20200071310A1, “N-ARYL PYRAZOLES AS NRF2 REGULATORS” (GLAXOSMITHKLINE INTELLECTUAL PROPERTY DEVELOPMENT LIMITED, priority 2016, published 2020).

Assay [1] has as its system NQO1 specific enzyme activity in BEAS-2B cells. Kind of assay: BEAS-2B NQO1 MTT Assay. Type of assay: cell-based. Particulars: Homo sapiens; NQO1 specific activity induction, BEAS-2B cells, 48 hours; read-out: EC50. The gist of the method: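 BEAS-2B cells plated overnight, treated with compound for 48 h at 37° C, then lysed; NQO1 activity measured kinetically by MTT cocktail at 570 nm over 30 min, with lysate aliquot for Cell Titer Glo. pEC50 from 3-parameter fit of ΔOD/min versus log concentration.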

Assay [2] deals with T1, Keap1 (321-609) Kelch domain / TAMRA-labeled NRF2 peptide (ETGE motif) (Homo sapiens, UniProt Q14145).
T1 construct: the Kelch domain (321-609) of Keap1 is used
T1 sequence (Q14145 321-609): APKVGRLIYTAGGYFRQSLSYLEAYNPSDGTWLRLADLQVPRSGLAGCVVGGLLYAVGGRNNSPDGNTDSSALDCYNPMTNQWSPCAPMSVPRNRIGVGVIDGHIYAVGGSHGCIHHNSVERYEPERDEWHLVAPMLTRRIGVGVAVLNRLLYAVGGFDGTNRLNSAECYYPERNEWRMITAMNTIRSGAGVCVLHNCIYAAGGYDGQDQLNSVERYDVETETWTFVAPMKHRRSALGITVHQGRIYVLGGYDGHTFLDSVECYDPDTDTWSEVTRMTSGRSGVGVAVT
The assay is described as follows: NRF2-Keap1 FP Assay. Type of assay: binding. Particulars: Keap1 (321-609) 20 nM, Tamra labeled peptide 8 nM. The gist of the method: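 Fluorescence polarization competition: 20 nM Keap1 Kelch (321-609) with 8 nM TAMRA-ETGE 16mer peptide (final) in Tris pH 8.0 buffer with DTT, CHAPS, BSA; 3-fold compound series, 1 h at room temperature. mP normalized to protein+peptide (0%) and peptide-only (100%) controls; pIC50 from four-parameter fit.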

On to `CN(Cc1cccc(-n2ncc(C(=O)O)c2[C@@H]2C[C@H]2c2cn(C)nn2)c1)S(=O)(=O)c1cccc(Oc2ccccc2)c1` (racemic) [Example 35, 5-((trans)-2-(1-methyl-1H-1,2,3-triazol-4-yl)cyclo-propyl)-1-(3-((N-methyl-3-phenoxy-phenyl-sulfonamido)-methyl)phenyl)-1H-pyrazole-4-carboxylic acid], for which the EC50 (commonly the midpoint of the concentration-response curve) in assay [1] lay within 1000 to 10000 nM; in assay [2], 10 to 100 nM.
On to `CC[C@@H]1CN(Cc2cc(-n3ncc(C(=O)O)c3[C@@H]3C[C@H]3c3cn(C)nn3)ccc2C)Cc2ccccc2O1` [Example 28], for which the EC50 in assay [1] and in assay [2] was 100 to 1000 nM each time.
Take `COc1ccccc1S(=O)(=O)N(Cc1cccc(-n2ncc(C(=O)O)c2[C@@H]2C[C@H]2c2cn(C)nn2)c1)C1CC1` (racemic) [Example 53, 1-(3-((N-cyclopropyl-2-methoxyphenylsulfonamido)methyl)phenyl)-5-((trans)-2-(1-methyl-1H-1,2,3-triazol-4-yl)cyclopropyl)-1H-pyrazole-4-carboxylic acid]: the EC50 lay within 100 to 1000 nM in assay [1] and 1000 to 10000 nM in assay [2].
For `COc1ccccc1S(=O)(=O)N(C)C1CCc2ccc(-n3ncc(C(=O)O)c3[C@@H]3C[C@H]3c3cn(C)nn3)cc21` (stereo partly drawn) [Example 27, 1-(3-(2-methoxy-N-methylphenylsulfonamido)-2,3-dihydro-1H-inden-5-yl)-5-((1R,2R)-2-(1-methyl-1H-1,2,3-triazol-4-yl)cyclopropyl)-1H-pyrazole-4-carboxylic acid] the same measures were 100 to 1000 nM and 1000 to 10000 nM.
